This experiment has as its system RAW264.7. The experiment can be described thus: Inhibition of LPS-induced nitric oxide production in mouse RAW264.7 cells after 24 hrs by Griess assay. It is filed as functional, cell-based. As to conditions: RAW264.7, 24 h. (Griess reagent forms a coloured azo dye with nitrite.)

Take `COc1cc(OC)c([C@@H]2[C@H](C)[C@H](c3cc(OC)c(OC)cc3OC)O[C@H]2C)cc1OC`: the IC50 was more than 50 µM. The figure for `COc1cc(OC)cc([C@@H]2OC[C@@H]3[C@H]2CO[C@H]3c2cc(OC)c(OC)c(OC)c2)c1` is 26.6 µM; for `COc1cc(OC)c([C@H]2[C@@H](C)[C@@H](c3cc(OC)c(OC)cc3OC)O[C@@H]2C)cc1OC` it is more than 50 µM; for `COC(=O)c1ccc(O[C@@H](C)[C@@H](O)c2cc(OC)c(OC)c(OC)c2)c(OC)c1` it is 29.5 µM.

As for `COC(=O)c1ccc(O[C@@H](C)[C@@H](O)c2ccc(OC)c(OC)c2)c(OC)c1` (relative stereo), the IC50 stood at 23.3 µM.

For the compound `COc1ccc([C@@H]2OC[C@@H]3[C@H]2CO[C@H]3c2ccc(OC)c(OC)c2)cc1OC` [EUDESMINE], the IC50 was more than 50 µM. In turn, `COc1cc(OC)cc([C@H]2OC[C@H]3[C@@H]2CO[C@@H]3c2cc(OC)c(OC)c(OC)c2)c1` returned an IC50 of more than 50 µM. As to `COc1cc([C@@H]2O[C@@H](c3ccc(O)c(OC)c3)[C@H](C)[C@H]2C)ccc1O`, the midpoint of inhibition, the IC50, lay at 37.8 µM. For `COc1ccc([C@H]2OC[C@H]3[C@@H]2CO[C@@H]3c2ccc(OC)c(OC)c2)cc1OC` [(+)-EUDESMIN], the IC50 is more than 50 µM. The compound `COc1cc([C@H]2O[C@H](c3ccc(O)c(OC)c3)[C@@H](C)[C@@H]2C)ccc1O` came in with an IC50 of 38 µM. Compound `C[C@@H]1C[C@H]2[C@@H]3CCC4=CC(=O)C=C[C@]4(C)[C@@]3(F)[C@@H](O)C[C@]2(C)[C@@]1(O)C(=O)CO` [DEXAMETHASONE] came in with a concentration for half-maximal inhibition (IC50) of 0.8 µM.

One may read the IC50 as the concentration at which inhibition is half-maximal. A low value points to inhibition by little substance.

The record behind these values is ChEMBL document CHEMBL3608307, “(±)-Acortatarinowins A-F, Norlignan, Neolignan, and Lignan Enantiomers from Acorus tatarinowii” (J Nat Prod, 2015).
